Laboratory results from ChEMBL document CHEMBL1201862, “PubChem BioAssay data set” (2004).
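Tested at 5 concentrations; 48 h exposure; 96-well plates; endpoints linearly interpolated, else capped at highest concentration. GI50: concentration for 50% inhibition of growth.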 Active and inactive are the calls of the source. Rule as the data show it: active = GI50 up to about 1.1 µM and inactive = higher.

What was measured:
Experiment in all cases: NCI anticancer screen, dose series, 48 h
[1] = tested on: EKVX
[2] = tested on: IGROV-1
[3] = tested on: LOX IMVI
[4] = tested on: M14
[5] = tested on: NCI-H226
[6] = tested on: NCI-H23
[7] = tested on: OVCAR-8
[8] = tested on: RXF 393
[9] = tested on: SF-268
[10] = tested on: SF-295
[11] = tested on: SK-MEL-28
[12] = tested on: SK-MEL-5
[13] = tested on: SK-OV-3
[14] = tested on: SNB-75
[15] = tested on: TK-10
[16] = tested on: UACC-257
[17] = tested on: HCC 2998
[18] = tested on: SNB-19
[19] = tested on: HOP-92

SMILES	GI50 [1]	GI50 [2]	GI50 [3]	GI50 [4]	GI50 [5]	GI50 [6]	GI50 [7]	GI50 [8]	GI50 [9]	GI50 [10]	GI50 [11]	GI50 [12]	GI50 [13]	GI50 [14]	GI50 [15]	GI50 [16]	GI50 [17]	GI50 [18]	GI50 [19]
O=C(CCn1ccnc1[N+](=O)[O-])NCCCn1ccnc1[N+](=O)[O-]	> 100 µM (inactive)	> 100 µM (inactive)	> 100 µM (inactive)	> 100 µM (inactive)	> 100 µM (inactive)	> 100 µM (inactive)	> 100 µM (inactive)	> 100 µM (inactive)	> 100 µM (inactive)	> 100 µM (inactive)	> 100 µM (inactive)	> 100 µM (inactive)	> 100 µM (inactive)	> 100 µM (inactive)	> 100 µM (inactive)	> 100 µM (inactive)			
CC(CO)(Nc1ccc([N+](=O)[O-])cc1[N+](=O)[O-])C(=O)O (stereo not drawn)	29.2 µM (inactive)	20 µM (inactive)	22.5 µM (inactive)	80.2 µM (inactive)	> 100 µM (inactive)	27.8 µM (inactive)	34.8 µM (inactive)	12.2 µM (inactive)	19.3 µM (inactive)	68.9 µM (inactive)	22.1 µM (inactive)	20.5 µM (inactive)			36.1 µM (inactive)	24.9 µM (inactive)	22.4 µM (inactive)	43 µM (inactive)	
Cc1ccc(S(=O)(=O)NC(=O)C2C(=O)CC3(CCCCC3)CC2=O)cc1	25.4 µM (inactive)	29.4 µM (inactive)	55.2 µM (inactive)	34.5 µM (inactive)	34.8 µM (inactive)	46 µM (inactive)	27.7 µM (inactive)	38.3 µM (inactive)	34.8 µM (inactive)	22 µM (inactive)		25.4 µM (inactive)	28.2 µM (inactive)	51.4 µM (inactive)	23.5 µM (inactive)	28.6 µM (inactive)		41.5 µM (inactive)	14.8 µM (inactive)
O=c1[nH]nc(Cc2ccc(Cl)cc2)n1/N=C\c1ccc(/C=N/n2c(Cc3ccc(Cl)cc3)n[nH]c2=O)cc1	> 100 µM (inactive)	> 100 µM (inactive)	> 100 µM (inactive)	> 100 µM (inactive)	96.6 µM (inactive)	> 100 µM (inactive)	54 µM (inactive)	29.7 µM (inactive)	37.9 µM (inactive)	> 100 µM (inactive)	> 100 µM (inactive)	> 100 µM (inactive)			0.855 µM (active)	> 100 µM (inactive)		50.7 µM (inactive)	28.3 µM (inactive)
CC1(C)C2CC(O)C1CCC2=O (stereo not drawn)			> 100 µM (inactive)	> 100 µM (inactive)	> 100 µM (inactive)	> 100 µM (inactive)	> 100 µM (inactive)	> 100 µM (inactive)	> 100 µM (inactive)	> 100 µM (inactive)	> 100 µM (inactive)	> 100 µM (inactive)	> 100 µM (inactive)	> 100 µM (inactive)	> 100 µM (inactive)	> 100 µM (inactive)	> 100 µM (inactive)	> 100 µM (inactive)	
CC1(C)O[C@H]([C@H](O)c2nnc3ccc(Cl)nn23)[C@@H]([C@H]2COC(C)(C)O2)O1	> 100 µM (inactive)	> 100 µM (inactive)	> 100 µM (inactive)	> 100 µM (inactive)		> 100 µM (inactive)	> 100 µM (inactive)	> 100 µM (inactive)	> 100 µM (inactive)	> 100 µM (inactive)	> 100 µM (inactive)	> 100 µM (inactive)	> 100 µM (inactive)		> 100 µM (inactive)	> 100 µM (inactive)	> 100 µM (inactive)	> 100 µM (inactive)	
Cc1csc2c(=O)n(C3OC(CO)C(O)C3O)c(=O)[nH]c12 (stereo not drawn)	> 100 µM (inactive)	> 100 µM (inactive)	> 100 µM (inactive)	> 100 µM (inactive)	> 100 µM (inactive)	> 100 µM (inactive)	> 100 µM (inactive)	> 100 µM (inactive)	> 100 µM (inactive)	> 100 µM (inactive)	> 100 µM (inactive)	> 100 µM (inactive)		> 100 µM (inactive)	39.5 µM (inactive)	> 100 µM (inactive)		> 100 µM (inactive)	> 100 µM (inactive)
COc1cc2c3c(n(C)c(=O)c2cc1OC)-c1cc2c(cc1/C3=C/CCCCBr)OCO2	> 100 µM (inactive)	6.56 µM (inactive)	62.8 µM (inactive)	32.9 µM (inactive)		24.8 µM (inactive)	> 100 µM (inactive)	> 100 µM (inactive)	37.4 µM (inactive)	4.5 µM (inactive)	> 100 µM (inactive)	54 µM (inactive)	> 100 µM (inactive)	11.6 µM (inactive)	> 100 µM (inactive)	> 100 µM (inactive)		> 100 µM (inactive)	57.7 µM (inactive)
C=C(C1=CC(=O)C(C)(C)O1)[C@@H]1CC=C([C@@H]2CC[C@H]3[C@@]2(C)CC[C@H]2C(C)(C)C(=O)[C@H](OC(=O)CC(C)(O)CC(=O)O)C[C@]32C)[C@H](O)O1 (stereo partly drawn)	15.3 µM (inactive)	12.4 µM (inactive)	13.1 µM (inactive)	13.5 µM (inactive)	16.3 µM (inactive)	13.6 µM (inactive)	13.4 µM (inactive)	0.106 µM (active)	10.9 µM (inactive)	36.4 µM (inactive)		12.5 µM (inactive)	19.2 µM (inactive)		27.4 µM (inactive)	15.2 µM (inactive)		25.4 µM (inactive)	12.7 µM (inactive)
CCCC(=O)Nc1cc(/C=C/C(=O)N2CC(CCl)c3ccc([N+](=O)[O-])cc32)n(C)c1 (stereo not drawn)	> 100 µM (inactive)	65 µM (inactive)	73.5 µM (inactive)	> 100 µM (inactive)	21.8 µM (inactive)	> 100 µM (inactive)	30.3 µM (inactive)	> 100 µM (inactive)	43.7 µM (inactive)	44.1 µM (inactive)	> 100 µM (inactive)		> 100 µM (inactive)	> 100 µM (inactive)	20 µM (inactive)	> 100 µM (inactive)	57.7 µM (inactive)	> 100 µM (inactive)	
CCOC(=O)c1ccc(Nc2nc3ccccc3nc2-c2cccs2)cc1	35.3 µM (inactive)	> 100 µM (inactive)	21.9 µM (inactive)		> 100 µM (inactive)	> 100 µM (inactive)	93.1 µM (inactive)	23.7 µM (inactive)	93.5 µM (inactive)	49.4 µM (inactive)	> 100 µM (inactive)	98.6 µM (inactive)		16.8 µM (inactive)	23.3 µM (inactive)	39.8 µM (inactive)	23.1 µM (inactive)	> 100 µM (inactive)	
CC12CCC(/C(=N/c3ccc([N+](=O)[O-])cc3)C1=O)C2(C)C (stereo not drawn)	20.1 µM (inactive)	25.1 µM (inactive)	14.7 µM (inactive)	27.9 µM (inactive)	> 100 µM (inactive)	31.6 µM (inactive)	23 µM (inactive)	13.9 µM (inactive)	20.3 µM (inactive)	27.1 µM (inactive)	12 µM (inactive)	26.2 µM (inactive)	28.4 µM (inactive)		16.9 µM (inactive)	32.4 µM (inactive)	17.4 µM (inactive)	33.4 µM (inactive)	
CC(NC(=O)Cc1ccccc1)NC(=O)C(C)C(=O)Nc1ccccc1 (stereo not drawn)	> 100 µM (inactive)	61.5 µM (inactive)		> 100 µM (inactive)	23.3 µM (inactive)	> 100 µM (inactive)	34.8 µM (inactive)	47.1 µM (inactive)	36.6 µM (inactive)	> 100 µM (inactive)		> 100 µM (inactive)	51.6 µM (inactive)	24 µM (inactive)	33.3 µM (inactive)	> 100 µM (inactive)		24 µM (inactive)	44.2 µM (inactive)
O=C1OC(CS(=O)(=O)c2ccccc2)CC1O (stereo not drawn)	> 100 µM (inactive)	> 100 µM (inactive)	> 100 µM (inactive)	> 100 µM (inactive)	> 100 µM (inactive)	> 100 µM (inactive)	> 100 µM (inactive)	> 100 µM (inactive)	> 100 µM (inactive)	> 100 µM (inactive)	> 100 µM (inactive)	> 100 µM (inactive)	> 100 µM (inactive)		> 100 µM (inactive)	> 100 µM (inactive)	> 100 µM (inactive)	> 100 µM (inactive)	
O=C(c1ccc2ccccc2c1)C1S(=O)(=O)OCCOS1(=O)=O	> 100 µM (inactive)		> 100 µM (inactive)	> 100 µM (inactive)		> 100 µM (inactive)	> 100 µM (inactive)			> 100 µM (inactive)	> 100 µM (inactive)	> 100 µM (inactive)			> 100 µM (inactive)	> 100 µM (inactive)	> 100 µM (inactive)	> 100 µM (inactive)	
CC(=O)c1nc2ccccc2n1CC(=O)c1ccc([N+](=O)[O-])cc1	> 100 µM (inactive)	3.12 µM (inactive)	7.26 µM (inactive)	77.1 µM (inactive)	21.5 µM (inactive)	31.3 µM (inactive)	8.49 µM (inactive)	23.8 µM (inactive)	30.8 µM (inactive)	17.7 µM (inactive)	52.6 µM (inactive)		31.2 µM (inactive)	35.3 µM (inactive)	42.5 µM (inactive)	33.6 µM (inactive)		13.5 µM (inactive)	
